According to patent US9481670B2, “Triazine compounds” (Sphaera Pharma PTE. Ltd., priority 2011, dated 2016):

target: T1, PI3K alpha (Homo sapiens, UniProt P42336); assay: P110 Alpha TR-FRET Assay (PI3K alpha kinase assay, HTRF Transcreener ADP Assay); type: biochemical; settings: PI3K (WT)
T1 construct: purchased Millipore Upstate
Summary of the method: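 HTRF Transcreener ADP read-out of ADP formed by PI3K (50 ng enzyme) in 50 mM HEPES pH 7.5, 5 mM MgCl2, 1 mM DTT, 30 μM Na3VO4. Compound preincubated with enzyme 20 min; reaction started with 10 μM ATP and 5 μM PIP2, run 20 min, then ADP-d2/anti-ADP cryptate detection for 1 h.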

T1 sequence (P42336 whole entry): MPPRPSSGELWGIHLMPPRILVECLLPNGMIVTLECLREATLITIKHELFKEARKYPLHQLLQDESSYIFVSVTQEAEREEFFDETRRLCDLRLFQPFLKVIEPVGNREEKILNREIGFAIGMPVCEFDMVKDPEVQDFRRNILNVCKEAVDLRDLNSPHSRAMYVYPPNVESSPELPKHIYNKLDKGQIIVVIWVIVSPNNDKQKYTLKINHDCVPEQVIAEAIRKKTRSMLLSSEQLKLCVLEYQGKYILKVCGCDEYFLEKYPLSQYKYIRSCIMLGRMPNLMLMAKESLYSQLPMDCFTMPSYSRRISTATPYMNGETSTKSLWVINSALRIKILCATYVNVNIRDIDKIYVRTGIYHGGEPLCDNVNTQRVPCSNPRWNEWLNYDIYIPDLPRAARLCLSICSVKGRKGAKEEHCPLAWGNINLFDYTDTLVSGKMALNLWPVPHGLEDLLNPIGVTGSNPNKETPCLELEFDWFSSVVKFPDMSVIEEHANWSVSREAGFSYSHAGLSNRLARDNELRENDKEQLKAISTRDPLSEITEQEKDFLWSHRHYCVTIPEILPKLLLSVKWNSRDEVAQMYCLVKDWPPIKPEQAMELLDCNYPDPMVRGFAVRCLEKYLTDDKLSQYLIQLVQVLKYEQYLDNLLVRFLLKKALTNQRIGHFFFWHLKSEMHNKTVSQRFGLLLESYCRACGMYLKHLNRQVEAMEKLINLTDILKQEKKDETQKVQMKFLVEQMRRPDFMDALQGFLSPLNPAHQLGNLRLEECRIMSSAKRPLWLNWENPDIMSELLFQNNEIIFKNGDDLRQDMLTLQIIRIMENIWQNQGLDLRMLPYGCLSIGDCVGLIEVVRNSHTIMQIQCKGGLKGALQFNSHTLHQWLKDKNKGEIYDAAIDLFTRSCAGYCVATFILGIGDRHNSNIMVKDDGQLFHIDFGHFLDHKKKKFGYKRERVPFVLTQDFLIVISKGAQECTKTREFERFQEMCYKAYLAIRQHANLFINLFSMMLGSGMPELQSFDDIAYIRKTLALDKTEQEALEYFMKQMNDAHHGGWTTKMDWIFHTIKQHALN
T1 sequence (P27986 whole entry partner): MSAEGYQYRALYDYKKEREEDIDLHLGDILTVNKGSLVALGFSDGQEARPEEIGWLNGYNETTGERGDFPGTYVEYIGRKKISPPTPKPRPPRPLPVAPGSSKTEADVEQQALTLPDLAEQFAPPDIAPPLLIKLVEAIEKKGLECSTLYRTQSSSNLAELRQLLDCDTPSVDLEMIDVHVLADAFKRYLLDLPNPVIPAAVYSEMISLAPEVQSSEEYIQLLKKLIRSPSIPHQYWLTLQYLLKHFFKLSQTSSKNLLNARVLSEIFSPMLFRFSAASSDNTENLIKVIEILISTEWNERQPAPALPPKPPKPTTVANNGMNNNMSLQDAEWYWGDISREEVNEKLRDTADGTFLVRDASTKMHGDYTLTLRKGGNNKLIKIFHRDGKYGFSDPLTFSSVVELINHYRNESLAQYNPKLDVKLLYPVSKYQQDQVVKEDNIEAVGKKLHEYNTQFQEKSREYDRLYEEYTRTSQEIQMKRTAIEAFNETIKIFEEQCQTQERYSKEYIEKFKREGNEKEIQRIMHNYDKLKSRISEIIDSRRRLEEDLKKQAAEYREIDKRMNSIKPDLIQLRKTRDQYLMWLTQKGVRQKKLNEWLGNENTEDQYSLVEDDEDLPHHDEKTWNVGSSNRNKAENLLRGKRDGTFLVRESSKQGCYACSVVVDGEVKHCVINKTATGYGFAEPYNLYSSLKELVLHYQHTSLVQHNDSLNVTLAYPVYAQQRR

Compound | IC50
CC(Nc1nc(-c2cccc(NS(C)(=O)=O)c2)nc(N2CCOCC2)n1)C(=O)O (stereo not shown) [Compound 1138, 2-((4-(3-(methylsulfonamido)phenyl)-6-morpholino-1,3,5-triazin-2-yl)amino)propanoic acid] | > 5 µM
Nc1nc(-c2cccc(O)c2)nc(N2CCOCC2)n1 [Compound 1139, 3-8-[4-3-amino-6-5-(morpholin-4-yl)-1,3,5-triazin-2-yl]phenol] | < 5 µM
CN(C)C(=O)CNc1nc(-c2cccc(C#N)c2)nc(N2CCOCC2)n1 [Compound 1141, 2-((4-(3-cyanophenyl)-6-morpholino-1,3,5-triazin-2-yl)amino)-N,N-dimethylacetamide] | > 5 µM
CS(=O)(=O)Nc1cccc(-c2nc(NCC(=O)O)nc(N3CCOCC3)n2)c1 [Compound 1146, 2-((4-(3-(methylsulfonamido)phenyl)-6-morpholino-1,3,5-triazin-2-yl)amino)acetic acid] | > 5 µM
CN(C)C(=O)CNc1nc(-c2cncc(O)c2)nc(N2CCOCC2)n1 [Compound 1150, 2-((4-(5-hydroxypyridin-3-yl)-6-morpholino-1,3,5-triazin-2-yl)amino)-N,N-dimethylacetamide] | < 5 µM
O=C(O)C1(Nc2nc(-c3cccc(O)c3)nc(N3CCOCC3)n2)CCCC1 [Compound 1153, 1-((4-(3-hydroxyphenyl)-6-morpholino-1,3,5-triazin-2-yl)amino)cyclopentanecarboxylic acid] | < 5 µM
CC(C)(CO)Nc1nc(-c2cccc(O)c2)nc(N2CCOCC2)n1 [Compound 1155, 3-6-{4-3-[(1-hydroxy-2-methylpropan-2-yl)amino]-6-5-(morpholin-4-yl)-1,3,5-triazin-2-yl}phenol] | < 5 µM
COc1ccc(F)c(-c2nc(NCC(=O)O)nc(N3CCOCC3)n2)c1 [Compound 1156, 2-((4-(2-fluoro-5-methoxyphenyl)-6-morpholino-1,3,5-triazin-2-yl)amino)acetic acid] | > 5 µM
Oc1cccc(-c2nc(N3CCOCC3)nc(N3CCOCC3)n2)c1 [Compound 1160, 3-6-[4-1,6-2-bis(morpholin-4-yl)-1,3,5-triazin-2-yl]phenol] | < 5 µM
O=C(O)CNc1nc(-c2cccc(C(=O)O)c2)nc(N2CCOCC2)n1 [Compound 1161, 3-6-{4-1-[(carboxymethyl)amino]-6-2-(morpholin-4-yl)-1,3,5-triazin-2-yl}benzoic acid] | > 5 µM
Nc1nc(-c2ccccc2)nc(N2CCOCC2)n1 [Compound 1162, 4-0-(morpholin-4-yl)-6-4-phenyl-1,3,5-triazin-2-amine] | > 5 µM
O=C1CN(C(=O)c2cccc(Nc3nc(-c4cccc5[nH]ncc45)nc(N4CCOCC4)n3)c2)CCN1 [Compound 1163, 4-(3-((4-(1H-indazol-4-yl)-6-morpholino-1,3,5-triazin-2-yl)amino)benzoyl)piperazin-2-one] | < 5 µM
C[C@H](Nc1nc(-c2ccc(N)nc2)nc(N2CCOCC2)n1)C(=O)N(C)C [Compound 1165, 2-((4-(6-aminopyridin-3-yl)-6-morpholino-1,3,5-triazin-2-yl)amino)-N,N-dimethylpropanamide] | < 5 µM
CNC(=O)CNc1nc(-c2cccc(O)c2)nc(N2CCOCC2)n1 [Compound 1168, 2-((4-(3-hydroxyphenyl)-6-morpholino-1,3,5-triazin-2-yl)amino)-N-methylacetamide] | < 5 µM

The next lines start with the values.

IC50 | Compound
< 5 µM | COC1CCN(C(=O)c2cccc(Nc3nc(-c4cccc5[nH]ncc45)nc(N4CCOCC4)n3)c2)CC1 [Compound 1140, (3-((4-(1H-indazol-4-yl)-6-morpholino-1,3,5-triazin-2-yl)amino)phenyl)(4-methoxypiperidin-1-yl)methanone]
< 5 µM | CNC(=O)[C@H]1CC[C@H](Oc2nc(-c3cccc4[nH]ncc34)nc(N3CCOCC3)n2)CC1 [Compound 1142, (1r,4r)-4-21-{[4-1-(1H-indazol-4-yl)-6-5-(morpholin-4-yl)-1,3,5-triazin-2-yl]oxy}-N-methylcyclohexane-1-carboxamide]
< 5 µM | CN(C)C(=O)[C@H]1CC[C@@H](Oc2nc(-c3cccc4[nH]ncc34)nc(N3CCOCC3)n2)CC1 [Compound 1143, (1s,4s)-4-21-{[4-1-(1H-indazol-4-yl)-6-5-(morpholin-4-yl)-1,3,5-triazin-2-yl]oxy}-N,N-dimethylcyclohexane-1-carboxamide]
< 5 µM | CN(C)C(=O)CNc1nc(-c2ccc(O)nc2)nc(N2CCOCC2)n1 [Compound 1145, 2-((4-(6-hydroxypyridin-3-yl)-6-morpholino-1,3,5-triazin-2-yl)amino)-N,N-dimethylacetamide]
< 5 µM | CN(C)C(=O)NC(C)(C)COc1nc(-c2cccc3[nH]ncc23)nc(N2CCOCC2)n1 [Compound 1147, 1-(1-14-{[4-1-(1H-indazol-4-yl)-6-5-(morpholin-4-yl)-1,3,5-triazin-2-yl]oxy}-2-15-methylpropan-2-yl)-3,3-dimethylurea]
< 5 µM | CCN1CCC(Oc2nc(-c3cccc4[nH]ncc34)nc(N3CCOCC3)n2)CC1 [Compound 1149, 4-7-{4-3-[(1-25-ethylpiperidin-4-yl)oxy]-6-5-(morpholin-4-yl)-1,3,5-triazin-2-yl}-1H-indazole]
< 5 µM | c1cc(-c2nc(OC3CCNCC3)nc(N3CCOCC3)n2)c2cn[nH]c2c1 [Compound 1151, 4-7-[4-5-(morpholin-4-yl)-6-3-(piperidin-4-yloxy)-1,3,5-triazin-2-yl]-1H-indazole]
< 5 µM | N[C@H]1CC[C@H](Oc2nc(-c3cccc4[nH]ncc34)nc(N3CCOCC3)n2)CC1 [Compound 1152, (1r,4r)-4-9-{[4-1-(1H-indazol-4-yl)-6-5-(morpholin-4-yl)-1,3,5-triazin-2-yl]oxy}cyclohexan-1-amine]
< 5 µM | NC(=O)C1CN(C(=O)c2cccc(Nc3nc(-c4cccc5[nH]ncc45)nc(N4CCOCC4)n3)c2)C1 [Compound 1154, 1-(3-((4-(1H-indazol-4-yl)-6-morpholino-1,3,5-triazin-2-yl)amino)benzoyl)azetidine-3-carboxamide]
< 5 µM | O=C(NC1CCNCC1)c1cccc(Nc2nc(-c3cccc4[nH]ncc34)nc(N3CCOCC3)n2)c1 [Compound 1157, 3-((4-(1H-indazol-4-yl)-6-morpholino-1,3,5-triazin-2-yl)amino)-N-(piperidin-4-yl)benzamide]
< 5 µM | NC(=O)c1sccc1Nc1nc(-c2cccc3[nH]ncc23)nc(N2CCOCC2)n1 [Compound 1158, 3-((4-(1H-indazol-4-yl)-6-morpholino-1,3,5-triazin-2-yl)amino)thiophene-2-carboxamide]
< 5 µM | COC1CN(C(=O)c2cccc(Nc3nc(-c4cccc5[nH]ncc45)nc(N4CCOCC4)n3)c2)C1 [Compound 1164, (3-((4-(1H-indazol-4-yl)-6-morpholino-1,3,5-triazin-2-yl)amino)phenyl)(3-methoxyazetidin-1-yl)methanone]
< 5 µM | c1ccc(CSc2nc(-c3cccc4[nH]ncc34)nc(N3CCOCC3)n2)cc1 [Compound 1166, 4-(4-(benzylthio)-6-(1H-indazol-4-yl)-1,3,5-triazin-2-yl)morpholine]
< 5 µM | CN(C)C(=O)CNc1nc(-c2cccc(O)c2)nc(N2CCOCC2)n1 [Compound 1167, 2-((4-(3-hydroxyphenyl)-6-morpholino-1,3,5-triazin-2-yl)amino)-N,N-dimethylacetamide]
